Assay results reported in patent US20090018111A1, “Novel Antimicrobial Medicament” (priority 2004, published 2009).
Where two headings read alike, the source gives them in different places.

How the values were obtained:
[1] = system: E. faecalis ATCC19433; experiment: Sensitivity test (agar dilution); type: cell-based, Enterococcus faecalis
Outline: (§1)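 Under the Japan Chemotherapeutic Society protocol, MIC was recorded as the lowest agar concentration, in twofold dilutions in MHA, preventing growth of about 10^6 CFU/ml inocula. FIC indices were derived for drug pairs.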

[2] = system: S. marcescens GN6473; experiment: Sensitivity test (agar dilution); type: cell-based, Serratia marcescens; details: Serratia marcescens
Outline: as §1

[3] = system: S. marcescens X 100; experiment: Sensitivity test (agar dilution); type: cell-based, Serratia marcescens
Outline: as §1

[4] = system: S. aureus MS94088 (hetero-MRSA); experiment: Sensitivity test (agar dilution); type: cell-based, Staphylococcus aureus; details: Staphylococcus aureus, MRSA
Outline: as §1

[5] = system: S. aureus SP-7928 (homo-MRSA); experiment: Sensitivity test (agar dilution); type: cell-based, Staphylococcus aureus
Outline: as §1

[6] = system: S. aureus 209P; experiment: Sensitivity test (agar dilution); type: cell-based, Staphylococcus aureus; details: for MIC: Staphylococcus aureus, 209P
Outline: as §1

[7] = system: E. coli ML1410 RP4; experiment: microbe, parasite or virus in culture; type: cell-based, Escherichia coli; details: Escherichia coli
Outline: as §1

[8] = Concomitant (IPM:SM = 1:1), read-out: MIC
[9] = Concomitant (MEPM:SM = 1:1), read-out: MIC
[10] = Concomitant (MEPM:SM = 1:2), read-out: MIC
[11] = Concomitant (MEPM:SM = 1:4), read-out: MIC
[12] = Concomitant drug (MEPM:SM = 2:1), read-out: MIC

C[C@H]1C=C(c2csc(SC3=C(C(=O)O)N4C(=O)[C@H]([C@@H](C)O)[C@H]4[C@H]3C)n2)CN1 [SM, (4R,5S,6S)-6-[(1R)-1-Hydroxyethyl]-4-methyl-3-({4-[(5S)-5-methyl-2,5-dihydro-1H-pyrrol-3-yl]-1,3-thiazol-2-yl}sulfanyl)-7-oxo-1-azabicyclo[3.2.0]hept-2-ene-2-carboxylic acid]
MIC ([1]; Enterococcus faecalis, ATCC19433, Concomitant (AZT:SM = 1:1), E. faecalis ATCC19433, read-out: MIC concomitant): 1 mg/L | MIC ([1]; Enterococcus faecalis, ATCC19433, Concomitant (BIPM:SM = 1:1), E. faecalis ATCC19433, read-out: MIC concomitant): 1 mg/L | MIC ([1]; Enterococcus faecalis, ATCC19433, Concomitant (CAZ:SM = 1:1), E. faecalis ATCC19433, read-out: MIC concomitant): 1 mg/L | MIC ([1]; Enterococcus faecalis, ATCC19433, Concomitant (CPFX:SM = 1:1), E. faecalis ATCC19433, read-out: MIC concomitant): 0.5 mg/L | MIC ([1]; Enterococcus faecalis, ATCC19433, Concomitant (DRPM:SM = 1:1), E. faecalis ATCC19433, read-out: MIC concomitant): 1 mg/L | MIC ([1]; Enterococcus faecalis, ATCC19433, Concomitant (IPM:SM = 1:1), read-out: MIC): 0.5 mg/L | MIC ([1]; Enterococcus faecalis, ATCC19433, Concomitant (MEPM:SM = 1:1), read-out: MIC): 1 mg/L | MIC ([1]; Enterococcus faecalis, ATCC19433, Concomitant (MEPM:SM = 1:2), read-out: MIC): 1 mg/L | MIC ([1]; Enterococcus faecalis, ATCC19433, Concomitant (MEPM:SM = 1:4), read-out: MIC): 1 mg/L | MIC ([1]; Enterococcus faecalis, ATCC19433, Concomitant (PAPM:SM = 1:1), E. faecalis ATCC19433, read-out: MIC concomitant): 1 mg/L | MIC ([1]; Enterococcus faecalis, ATCC19433, Concomitant (PIPC:SM = 1:1), E. faecalis ATCC19433, read-out: MIC concomitant): 0.5 mg/L | MIC ([1]; Enterococcus faecalis, ATCC19433, Concomitant drug (MEPM:SM = 2:1), read-out: MIC): 0.5 mg/L | MIC ([1]; Enterococcus faecalis, ATCC19433, alone, read-out: MIC): 1 mg/L | MIC ([1]; Enterococcus faecalis, ATCC19433, drug alone, E. faecalis ATCC19433, read-out: MIC alone): 2 mg/L | MIC ([1]; alone): 2 mg/L | MIC alone ([1]; drug alone, E. faecalis ATCC19433): 1 mg/L | MIC ([2]; GN6473, Concomitant (AZT:SM = 1:1), S. marcescens GN6473, read-out: MIC concomitant): 0.25 mg/L | MIC ([2]; GN6473, Concomitant (BIPM:SM = 1:1), S. marcescens GN6473, read-out: MIC concomitant): 0.125 mg/L | MIC ([2]; GN6473, Concomitant (CAZ:SM = 1:1), S. marcescens GN6473, read-out: MIC concomitant): 0.5 mg/L | MIC ([2]; GN6473, Concomitant (CPFX:SM = 1:1), S. marcescens GN6473, read-out: MIC concomitant): 1 mg/L | MIC ([2]; GN6473, Concomitant (DRPM:SM = 1:1), S. marcescens GN6473, read-out: MIC concomitant): 0.063 mg/L | MIC ([2]; GN6473, Concomitant (IPM:SM = 1:1), read-out: MIC): 0.25 mg/L | MIC ([2]; GN6473, Concomitant (MEPM:SM = 1:1), read-out: MIC): 0.031 mg/L | MIC ([2]; GN6473, Concomitant (MEPM:SM = 1:2), read-out: MIC): 0.063 mg/L | MIC ([2]; GN6473, Concomitant (MEPM:SM = 1:4), read-out: MIC): 0.125 mg/L | MIC ([2]; GN6473, Concomitant (PAPM:SM = 1:1), S. marcescens GN6473, read-out: MIC concomitant): 0.25 mg/L | MIC ([2]; GN6473, Concomitant (PIPC:SM = 1:1), S. marcescens GN6473, read-out: MIC concomitant): 4 mg/L | MIC ([2]; GN6473, Concomitant drug (MEPM:SM = 2:1), read-out: MIC): 0.016 mg/L | MIC ([2]; GN6473, alone, read-out: MIC): 4 mg/L | MIC ([2]; GN6473, drug alone, S. marcescens GN6473, read-out: MIC alone): 4 mg/L | MIC ([3]; Serratia marcescens, X100, Concomitant (AZT:SM = 1:1), S. marcescens X 100, read-out: MIC concomitant): 0.031 mg/L | MIC ([3]; Serratia marcescens, X100, Concomitant (BIPM:SM = 1:1), S. marcescens X 100, read-out: MIC concomitant): 0.063 mg/L | MIC ([3]; Serratia marcescens, X100, Concomitant (CAZ:SM = 1:1), S. marcescens X 100, read-out: MIC concomitant): 0.125 mg/L | MIC ([3]; Serratia marcescens, X100, Concomitant (CPFX:SM = 1:1), S. marcescens X 100, read-out: MIC concomitant): 0.063 mg/L | MIC ([3]; Serratia marcescens, X100, Concomitant (DRPM:SM = 1:1), S. marcescens X 100, read-out: MIC concomitant): 0.031 mg/L | MIC ([3]; Serratia marcescens, X100, Concomitant (IPM:SM = 1:1), read-out: MIC): 0.125 mg/L | MIC ([3]; Serratia marcescens, X100, Concomitant (MEPM:SM = 1:1), read-out: MIC): ≤ 0.016 mg/L | MIC ([3]; Serratia marcescens, X100, Concomitant (MEPM:SM = 1:2), read-out: MIC): ≤ 0.031 mg/L | MIC ([3]; Serratia marcescens, X100, Concomitant (MEPM:SM = 1:4), read-out: MIC): ≤ 0.063 mg/L | MIC ([3]; Serratia marcescens, X100, Concomitant (PAPM:SM = 1:1), S. marcescens X 100, read-out: MIC concomitant): 0.125 mg/L | MIC ([3]; Serratia marcescens, X100, Concomitant (PIPC:SM = 1:1), S. marcescens X 100, read-out: MIC concomitant): 0.25 mg/L | MIC ([3]; Serratia marcescens, X100, Concomitant drug (MEPM:SM = 2:1), read-out: MIC): 0.016 mg/L | MIC ([3]; Serratia marcescens, X100, alone, read-out: MIC): 0.5 mg/L | MIC ([3]; Serratia marcescens, X100, drug alone, S. marcescens X 100, read-out: MIC alone): 1 mg/L | MIC ([3]; alone): 1 mg/L | MIC ([4]; Concomitant (AZT:SM = 1:1), S. aureus MS94088 (hetero-MRSA), read-out: MIC concomitant): 0.25 mg/L | MIC ([4]; Concomitant (BIPM:SM = 1:1), S. aureus MS94088 (hetero-MRSA), read-out: MIC concomitant): 0.25 mg/L | MIC ([4]; Concomitant (CAZ:SM = 1:1), S. aureus MS94088 (hetero-MRSA), read-out: MIC concomitant): 0.25 mg/L | MIC ([4]; Concomitant (CPFX:SM = 1:1), S. aureus MS94088 (hetero-MRSA), read-out: MIC concomitant): 0.125 mg/L | MIC ([4]; Concomitant (DRPM:SM = 1:1), S. aureus MS94088 (hetero-MRSA), read-out: MIC concomitant): 0.25 mg/L | MIC [4, 8]: 0.25 mg/L | MIC [4, 9]: 0.25 mg/L | MIC [4, 10]: 0.25 mg/L | MIC [4, 11]: 0.25 mg/L | MIC ([4]; Concomitant (PAPM:SM = 1:1), S. aureus MS94088 (hetero-MRSA), read-out: MIC concomitant): 0.25 mg/L | MIC ([4]; Concomitant (PIPC:SM = 1:1), S. aureus MS94088 (hetero-MRSA), read-out: MIC concomitant): 0.125 mg/L | MIC [4, 12]: 0.25 mg/L | MIC ([4]; alone, read-out: MIC): 0.25 mg/L | MIC ([4]; drug alone, S. aureus MS94088 (hetero-MRSA), read-out: MIC alone): 0.25 mg/L | MIC ([5]; Staphylococcus aureus, MRSA, Concomitant (AZT:SM = 1:1), S. aureus SP-7928 (homo-MRSA), read-out: MIC concomitant): 2 mg/L | MIC ([5]; Staphylococcus aureus, MRSA, Concomitant (BIPM:SM = 1:1), S. aureus SP-7928 (homo-MRSA), read-out: MIC concomitant): 2 mg/L | MIC ([5]; Staphylococcus aureus, MRSA, Concomitant (CAZ:SM = 1:1), S. aureus SP-7928 (homo-MRSA), read-out: MIC concomitant): 1 mg/L | MIC ([5]; Staphylococcus aureus, MRSA, Concomitant (CPFX:SM = 1:1), S. aureus SP-7928 (homo-MRSA), read-out: MIC concomitant): 0.25 mg/L | MIC ([5]; Staphylococcus aureus, MRSA, Concomitant (DRPM:SM = 1:1), S. aureus SP-7928 (homo-MRSA), read-out: MIC concomitant): 1 mg/L | MIC ([5]; Staphylococcus aureus, MRSA, Concomitant (IPM:SM = 1:1), read-out: MIC): 2 mg/L | MIC ([5]; Staphylococcus aureus, MRSA, Concomitant (MEPM:SM = 1:1), read-out: MIC): 1 mg/L | MIC ([5]; Staphylococcus aureus, MRSA, Concomitant (MEPM:SM = 1:2), read-out: MIC): 2 mg/L | MIC ([5]; Staphylococcus aureus, MRSA, Concomitant (MEPM:SM = 1:4), read-out: MIC): 2 mg/L | MIC ([5]; Staphylococcus aureus, MRSA, Concomitant (PAPM:SM = 1:1), S. aureus SP-7928 (homo-MRSA), read-out: MIC concomitant): 2 mg/L | MIC ([5]; Staphylococcus aureus, MRSA, Concomitant (PIPC:SM = 1:1), S. aureus SP-7928 (homo-MRSA), read-out: MIC concomitant): 1 mg/L | MIC ([5]; Staphylococcus aureus, MRSA, Concomitant drug (MEPM:SM = 2:1), read-out: MIC): 1 mg/L | MIC ([5]; Staphylococcus aureus, MRSA, alone, read-out: MIC): 1 mg/L | MIC ([5]; Staphylococcus aureus, MRSA, drug alone, S. aureus SP-7928 (homo-MRSA), read-out: MIC alone): 2 mg/L | MIC ([5]; alone): 2 mg/L | MIC alone ([5]; drug alone, S. aureus SP-7928 (homo-MRSA)): 1 mg/L | MIC ([6]; Concomitant (AZT:SM = 1:1), S. aureus 209P, read-out: MIC concomitant): 0.008 mg/L | MIC ([6]; Concomitant (BIPM:SM = 1:1), S. aureus 209P, read-out: MIC concomitant): 0.008 mg/L | MIC ([6]; Concomitant (CAZ:SM = 1:1), S. aureus 209P, read-out: MIC concomitant): 0.004 mg/L | MIC ([6]; Concomitant (CPFX:SM = 1:1), S. aureus 209P, read-out: MIC concomitant): 0.008 mg/L | MIC ([6]; Concomitant (DRPM:SM = 1:1), S. aureus 209P, read-out: MIC concomitant): 0.004 mg/L | MIC [6, 8]: 0.004 mg/L | MIC [6, 9]: ≤ 0.016 mg/L | MIC [6, 10]: ≤ 0.031 mg/L | MIC [6, 11]: ≤ 0.063 mg/L | MIC ([6]; Concomitant (PAPM:SM = 1:1), S. aureus 209P, read-out: MIC concomitant): 0.004 mg/L | MIC ([6]; Concomitant (PIPC:SM = 1:1), S. aureus 209P, read-out: MIC concomitant): 0.004 mg/L | MIC [6, 12]: ≤ 0.008 mg/L | MIC ([6]; alone, read-out: MIC): ≤ 0.008 mg/L | MIC ([6]; drug alone, S. aureus 209P, read-out: MIC alone): 0.008 mg/L | MIC alone ([6]; drug alone, S. aureus 209P): 0.004 mg/L | MIC ([7]; ML1410RP4, Concomitant (IPM:SM = 1:1)): 0.125 mg/L | MIC ([7]; ML1410RP4, Concomitant (MEPM:SM = 1:1)): ≤ 0.016 mg/L | MIC ([7]; ML1410RP4, Concomitant (MEPM:SM = 1:2)): ≤ 0.031 mg/L
